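1) Cells in 96-well plates. 2) Compound, 48 h, 5 concentrations. 3) Linear interpolation between surrounding doses. 4) Unreached endpoint = highest concentration. Abbreviation: GI50, concentration required for 50% inhibition of growth. TGI: concentration producing complete growth inhibition.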
Columns and labels:
Experiment in all cases: NCI tumour cell line growth inhibition, 48 h
786-0 renal = tested on: 786-0 renal
A498 renal = tested on: A498 renal
A549 NSCLC = tested on: A549 NSCLC
ACHN renal = tested on: ACHN renal
BT-549 breast = tested on: BT-549 breast
CAKI-1 renal = tested on: CAKI-1 renal
CCRF-CEM leukemia = tested on: CCRF-CEM leukemia
COLO 205 colon = tested on: COLO 205 colon
DU-145 prostate = tested on: DU-145 prostate
HCC-2998 colon = tested on: HCC-2998 colon
HCT-116 colon = tested on: HCT-116 colon
HCT-15 colon = tested on: HCT-15 colon
HL-60(TB) leukemia = tested on: HL-60(TB) leukemia
HOP-62 NSCLC = tested on: HOP-62 NSCLC
HS 578T breast = tested on: HS 578T breast
HT29 colon = tested on: HT29 colon
IGROV1 ovarian = tested on: IGROV1 ovarian
K-562 leukemia = tested on: K-562 leukemia
KM12 colon = tested on: KM12 colon
M14 melanoma = tested on: M14 melanoma
MALME-3M melanoma = tested on: MALME-3M melanoma
MCF7 breast = tested on: MCF7 breast
MDA-MB-231 breast = tested on: MDA-MB-231 breast
MDA-MB-435 = tested on: MDA-MB-435
MOLT-4 leukemia = tested on: MOLT-4 leukemia
NCI-H226 lung = tested on: NCI-H226 lung
NCI-H23 lung = tested on: NCI-H23 lung
NCI-H460 lung = tested on: NCI-H460 lung
NCI-H522 lung = tested on: NCI-H522 lung
NCI/ADR-RES ovarian = tested on: NCI/ADR-RES ovarian
OVCAR-3 ovarian = tested on: OVCAR-3 ovarian
OVCAR-4 ovarian = tested on: OVCAR-4 ovarian
OVCAR-5 ovarian = tested on: OVCAR-5 ovarian
OVCAR-8 ovarian = tested on: OVCAR-8 ovarian
PC-3 prostate = tested on: PC-3 prostate
RPMI-8226 leukemia = tested on: RPMI-8226 leukemia
RXF 393 renal = tested on: RXF 393 renal
SF-268 CNS = tested on: SF-268 CNS
SF-295 CNS = tested on: SF-295 CNS
SF-539 CNS = tested on: SF-539 CNS
SK-MEL-2 melanoma = tested on: SK-MEL-2 melanoma
SK-MEL-28 melanoma = tested on: SK-MEL-28 melanoma
SK-MEL-5 melanoma = tested on: SK-MEL-5 melanoma
SK-OV-3 ovarian = tested on: SK-OV-3 ovarian
SN12C renal = tested on: SN12C renal
SNB-19 CNS = tested on: SNB-19 CNS
SNB-75 CNS = tested on: SNB-75 CNS
SR leukemia = tested on: SR leukemia
SW-620 colon = tested on: SW-620 colon
T-47D breast = tested on: T-47D breast
U251 CNS = tested on: U251 CNS
UACC-257 melanoma = tested on: UACC-257 melanoma
UACC-62 melanoma = tested on: UACC-62 melanoma
UO-31 renal = tested on: UO-31 renal

COc1cc(Cl)cc(-c2nn(-c3cccc(NC(=O)Nc4ccc(Cl)c(C(F)(F)F)c4)c3)cc2-c2ccncc2)c1 gave a GI50 (786-0 renal) of 1590 nM, a TGI (786-0 renal) of 4.27 µM and a GI50 (A498 renal) of 2680 nM. It also gave a TGI (A498 renal) of 14.4 µM, a GI50 (A549 NSCLC) of 678 nM and a TGI (A549 NSCLC) of 10.8 µM. For the same compound, the GI50 (ACHN renal) was 762 nM, the TGI (ACHN renal) was 10.2 µM and the GI50 (BT-549 breast) was 2380 nM. For the same compound, the TGI (BT-549 breast) was 6.66 µM, the GI50 (CAKI-1 renal) was 816 nM and the TGI (CAKI-1 renal) was 9.43 µM. For the same compound, the GI50 (CCRF-CEM leukemia) was 613 nM, the TGI (CCRF-CEM leukemia) was 3.65 µM and the GI50 (COLO 205 colon) was 1530 nM. It also gave a TGI (COLO 205 colon) of 3.11 µM, a GI50 (DU-145 prostate) of 1860 nM and a TGI (DU-145 prostate) of 14 µM. The GI50 (HCC-2998 colon) was 2910 nM, the TGI (HCC-2998 colon) was 9.02 µM and the GI50 (HCT-116 colon) was 631 nM. For the same compound, the TGI (HCT-116 colon) was 2360 nM, the GI50 (HCT-15 colon) was 493 nM and the TGI (HCT-15 colon) was 2400 nM. For the same compound, the GI50 (HL-60(TB) leukemia) was 1680 nM, the TGI (HL-60(TB) leukemia) was 5.53 µM and the GI50 (HOP-62 NSCLC) was 2120 nM. It also gave a TGI (HOP-62 NSCLC) of 6.32 µM, a GI50 (HS 578T breast) of 4.29 µM and a TGI (HS 578T breast) of 67.7 µM. For the same compound, the GI50 (HT29 colon) was 1140 nM, the TGI (HT29 colon) was 4.38 µM and the GI50 (IGROV1 ovarian) was 3.2 µM. The TGI (IGROV1 ovarian) was 29.1 µM, the GI50 (K-562 leukemia) was 537 nM and the TGI (K-562 leukemia) was 10.1 µM. The GI50 (KM12 colon) was 555 nM, the TGI (KM12 colon) was 4.44 µM and the GI50 (M14 melanoma) was 1330 nM. The TGI (M14 melanoma) was 3.47 µM, the GI50 (MALME-3M melanoma) was 1710 nM and the TGI (MALME-3M melanoma) was 8.59 µM. For the same compound, the GI50 (MCF7 breast) was 1010 nM, the TGI (MCF7 breast) was 11 µM and the GI50 (MDA-MB-231 breast) was 1440 nM. It also gave a TGI (MDA-MB-231 breast) of 3.74 µM, a GI50 (MDA-MB-435) of 1760 nM and a TGI (MDA-MB-435) of 4.36 µM. For the same compound, the GI50 (MOLT-4 leukemia) was 1230 nM, the TGI (MOLT-4 leukemia) was 4.65 µM and the GI50 (NCI-H226 lung) was 2500 nM. It also gave a TGI (NCI-H226 lung) of 14.7 µM, a GI50 (NCI-H23 lung) of 1360 nM and a TGI (NCI-H23 lung) of 6.23 µM. For the same compound, the GI50 (NCI-H460 lung) was 770 nM, the TGI (NCI-H460 lung) was 4.08 µM and the GI50 (NCI-H522 lung) was 418 nM. The TGI (NCI-H522 lung) was 2500 nM, the GI50 (NCI/ADR-RES ovarian) was 1770 nM and the TGI (NCI/ADR-RES ovarian) was 11.6 µM. It also gave a GI50 (OVCAR-3 ovarian) of 451 nM, a TGI (OVCAR-3 ovarian) of 2660 nM and a GI50 (OVCAR-4 ovarian) of 1800 nM. For the same compound, the TGI (OVCAR-4 ovarian) was 28.8 µM, the GI50 (OVCAR-5 ovarian) was 2130 nM and the TGI (OVCAR-5 ovarian) was 7.15 µM. The GI50 (OVCAR-8 ovarian) was 739 nM, the TGI (OVCAR-8 ovarian) was 5.93 µM and the GI50 (PC-3 prostate) was 342 nM. The TGI (PC-3 prostate) was 2120 nM, the GI50 (RPMI-8226 leukemia) was 402 nM and the TGI (RPMI-8226 leukemia) was 2070 nM. The GI50 (RXF 393 renal) was 1710 nM, the TGI (RXF 393 renal) was 4.42 µM and the GI50 (SF-268 CNS) was 2660 nM. It also gave a TGI (SF-268 CNS) of 12.1 µM, a GI50 (SF-295 CNS) of 465 nM and a TGI (SF-295 CNS) of 2000 nM. For the same compound, the GI50 (SF-539 CNS) was 1500 nM, the TGI (SF-539 CNS) was 3.35 µM and the GI50 (SK-MEL-2 melanoma) was 1790 nM. It also gave a TGI (SK-MEL-2 melanoma) of 4.21 µM, a GI50 (SK-MEL-28 melanoma) of 2410 nM and a TGI (SK-MEL-28 melanoma) of 8.41 µM. It also gave a GI50 (SK-MEL-5 melanoma) of 1540 nM, a TGI (SK-MEL-5 melanoma) of 2930 nM and a GI50 (SK-OV-3 ovarian) of 3.15 µM. For the same compound, the TGI (SK-OV-3 ovarian) was 9.85 µM, the GI50 (SN12C renal) was 1560 nM and the TGI (SN12C renal) was 8.21 µM. For the same compound, the GI50 (SNB-19 CNS) was 2930 nM, the TGI (SNB-19 CNS) was 17.6 µM and the GI50 (SNB-75 CNS) was 1770 nM. The TGI (SNB-75 CNS) was 11.1 µM, the GI50 (SR leukemia) was 1.08 µM and the TGI (SR leukemia) was 4.38 µM. It also gave a GI50 (SW-620 colon) of 1610 nM, a TGI (SW-620 colon) of 10.5 µM and a GI50 (T-47D breast) of 1250 nM. For the same compound, the TGI (T-47D breast) was 8.02 µM, the GI50 (U251 CNS) was 729 nM and the TGI (U251 CNS) was 2110 nM. The GI50 (UACC-257 melanoma) was 1890 nM, the TGI (UACC-257 melanoma) was 4.93 µM and the GI50 (UACC-62 melanoma) was 1270 nM. The TGI (UACC-62 melanoma) was 3.54 µM, the GI50 (UO-31 renal) was 1660 nM and the TGI (UO-31 renal) was 10.9 µM.
Compound CC(C)(C)c1cc(C#N)cc(Br)c1OP(=O)(Oc1c(Br)cc(C#N)cc1C(C)(C)C)c1ccccc1 has a GI50 (SR leukemia) of 10.5 µM.

From PubChem BioAssay (NCI)
